Biological target: urease enzyme (Canavalia ensiformis, UniProt P07374)
Type: biochemical
Details: read-out: IC50 values (urease inhibition); indophenol method, pH 6.8, 30 °C, 15 min incubation, triplicate; thiourea as standard
Procedure: 25 µL of enzyme and 55 µL of buffer was added to 100 mM urea that were incubated with test scaffolds 5 µL (0.5 mM concentration) for 15 min at 30 °C in 96-well plates. Urea concentrations were changed from 2–24 mM to study kinetics. As described by Weatherburn the urease potential was assessed by measuring the ammonia production with using indophenol method. Concisely, 70 µL of alkali reagent (0.1% active chloride NaOCl and 0.5 w/v NaOH) and 45 µL of reagent phenol (0.005% w/v sodium nitroprusside and 1% w/v phenol) were added to each and every well plate. Using microplate reader (Molecular Device, USA) the increase in absorbance at 630 nm was measured after 50 min. Using 200 µL as final volume the reading was performed as triplicate. With help of SoftMaxPro software (Molecular Device, USA) the results (per min absorbance change) were calculated. At pH 6.8 the entire assay was performed. With the help of 100 − (ODtest well/ODcontrol) × 100 the percentage inhibition was calculated.

urease enzyme, sequence (P07374 whole entry, looked up): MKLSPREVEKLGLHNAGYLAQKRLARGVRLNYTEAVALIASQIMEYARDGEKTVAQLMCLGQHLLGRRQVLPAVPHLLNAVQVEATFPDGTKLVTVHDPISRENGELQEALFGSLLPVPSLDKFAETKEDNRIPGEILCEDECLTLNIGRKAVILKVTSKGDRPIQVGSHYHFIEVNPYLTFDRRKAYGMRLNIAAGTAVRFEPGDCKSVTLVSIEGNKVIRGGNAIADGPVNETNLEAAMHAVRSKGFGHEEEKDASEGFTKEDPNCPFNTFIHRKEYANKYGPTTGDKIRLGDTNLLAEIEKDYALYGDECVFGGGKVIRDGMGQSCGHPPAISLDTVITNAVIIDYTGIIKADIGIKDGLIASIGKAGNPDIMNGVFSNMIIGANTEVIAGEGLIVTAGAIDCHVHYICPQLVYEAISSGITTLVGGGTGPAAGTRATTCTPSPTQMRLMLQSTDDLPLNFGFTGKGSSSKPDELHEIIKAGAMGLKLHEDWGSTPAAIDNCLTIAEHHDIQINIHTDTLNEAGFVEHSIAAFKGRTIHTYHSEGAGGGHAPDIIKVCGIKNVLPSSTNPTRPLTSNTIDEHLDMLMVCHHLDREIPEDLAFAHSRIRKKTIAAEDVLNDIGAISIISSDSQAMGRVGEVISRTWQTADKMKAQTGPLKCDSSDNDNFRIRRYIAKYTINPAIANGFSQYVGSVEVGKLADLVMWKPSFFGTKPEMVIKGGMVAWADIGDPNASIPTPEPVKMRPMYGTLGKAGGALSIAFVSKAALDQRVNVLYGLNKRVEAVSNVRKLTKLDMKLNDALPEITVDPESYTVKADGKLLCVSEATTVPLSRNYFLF

O=C(NN1C(=O)SCC1c1ccc(Cl)cc1Cl)c1cc2c(F)cc([N+](=O)[O-])cc2o1 (stereo not shown) [Compound 8, N-(4-(2,4-dichlorophenyl)-2-oxothiazolidin-3-yl)-4-fluoro-6-nitrobenzofuran-2-carboxamide]
IC50: 2.9 ± 0.01 µM
